The results in this text go back to patent US20230416258A1, “BENZ[…], AND PREPARATION METHOD THEREFOR AND USE THEREOF” (CHINA PHARMACEUTICAL UNIVERSITY, priority 2020, published 2023).

Each structure is given as a SMILES string.

For the first test, the system named is KM mice. Nature of the test: Test for drug-induced disappearance of righting reflex in mice. Format: in vivo. Particulars: 30 mg/kg, single rapid bolus via tail vein. From the text:
In anesthetic drug experiments, latency generally refers to the time from the start of administration to the loss of consciousness of the subject. The shorter latency is preferred, indicating a rapid onset of action after administration. The duration of anesthesia generally refers to the duration of time from the loss of consciousness to the restoration of consciousness of the subject. The duration of the drug will vary from animal model to animal species. Too long anesthesia may produce adverse cardiovascular and respiratory responses, such as adverse neurological effects to the subject, including sleepiness and dizziness; meanwhile, too short duration of anesthesia may affect the anesthesia effect, causing problems such as increase of anesthesia dosage during the operation.
KM mice (female, 18-25 g) were randomly grouped and subjected to a single administration by rapid bolus via the tail vein. The latency and duration of disappearance of righting reflex in the mice were recorded.
With `CCSc1nnc2n1-c1ccc(Br)cc1C(c1ccccc1Cl)=N[C@H]2CCC(=O)OC` [Compound 27, methyl (S)-3-(8-bromo-6-(2-chlorophenyl)-1-(ethylthio)-4H-benzo[f][1,2,4]triazolo[4,3-a][1,4]diazepin-4-yl)propionate], the Duration is 5.93 min and the Latency was 0.35 min.

Take `CCCSc1nnc2n1-c1ccc([N+](=O)[O-])cc1C(c1ccccc1Cl)=N[C@H]2CCC(=O)OC` [Compound 31, methyl (S)-3-(8-nitro-6-(2-chlorophenyl)-1-(propylthio)-4H-benzo[f][1,2,4]triazolo[4,3-a][1,4]diazepin-4-yl)propionate]: the Duration is 8.98 min and the Latency is on record as 2.85 min.

The molecule `COC(=O)CC[C@@H]1N=C(c2ccccc2Cl)c2cc(Cl)ccc2-n2c(SC(C)=O)nnc21` [Compound 38, methyl (S)-3-(8-chloro-6-(2-chlorophenyl)-1-(acetylthio)-4H-benzo[f][1,2,4]triazolo[4,3-a][1,4]diazepin-4-yl)propionate] yielded a Duration of 12.94 min and a Latency of 0.67 min.

Take `COC(=O)CC[C@@H]1N=C(c2ccccc2Cl)c2cc([N+](=O)[O-])ccc2-n2c(SC(C)=O)nnc21` [Compound 40, methyl (S)-3-(8-nitro-6-(2-chlorophenyl)-1-(acetylthio)-4H-benzo[f][1,2,4]triazolo[4,3-a][1,4]diazepin-4-yl)propionate]: the Duration is listed as 8.94 min and the Latency is 0.37 min.

Molecule `CCOC(=O)CC[C@@H]1N=C(c2ccccc2Cl)c2cc(Cl)ccc2-n2c(SC)nnc21` [Compound 42, ethyl (S)-3-(8-chloro-6-(2-chlorophenyl)-1-(methylthio)-4H-benzo[f][1,2,4]triazolo[4,3-a][1,4]diazepin-4-yl)propionate] displayed a Duration of 4.68 min and a Latency of 0.65 min.

`CCOC(=O)CC[C@@H]1N=C(c2ccccc2Cl)c2cc(Br)ccc2-n2c(SC)nnc21` [Compound 43, ethyl (S)-3-(8-bromo-6-(2-chlorophenyl)-1-(methylthio)-4H-benzo[f][1,2,4]triazolo[4,3-a][1,4]diazepin-4-yl)propionate] yielded a Duration of 12.38 min and a Latency of 0.38 min.

The molecule `CCOC(=O)CC[C@@H]1N=C(c2ccccc2Cl)c2cc([N+](=O)[O-])ccc2-n2c(SC)nnc21` [Compound 44, ethyl (S)-3-(8-nitro-6-(2-chlorophenyl)-1-(methylthio)-4H-benzo[f][1,2,4]triazolo[4,3-a][1,4]diazepin-4-yl)propionate] returned a Duration of 16.27 min and a Latency of 1.28 min.

Molecule `COC(=O)CC[C@@H]1N=C(c2ccccc2F)c2cc(Cl)ccc2-n2c(SCC3CC3)nnc21` [Compound 45, methyl (S)-3-(8-chloro-1-((cyclopropylmethyl)thio)-6-(2-fluorophenyl)-4H-benzo[f][1,2,4]triazolo[4,3-a][1,4]diazepin-4-yl)propionate] came in with a Duration of 11.37 min and a Latency of 0.65 min.

`COC(=O)CC[C@@H]1N=C(c2ccccc2F)c2cc(Br)ccc2-n2c(SCC3CC3)nnc21` [Compound 46, methyl (S)-3-(8-bromo-1-((cyclopropylmethyl)thio)-6-(2-fluorophenyl)-4H-benzo[f][1,2,4]triazolo[4,3-a][1,4]diazepin-4-yl)propionate] registered a Duration of 10.83 min and a Latency of 0.69 min.

`C#CCSc1nnc2n1-c1ccc(Br)cc1C(c1ccccc1F)=N[C@H]2CCC(=O)OC` [Compound 49, methyl (S)-3-(8-bromo-6-(2-fluorophenyl)-1-(prop-2-yn-1-ylthio)-4H-benzo[f][1,2,4]triazolo[4,3-a][1,4]diazepin-4-yl)propionate] registered a Duration of 9.65 min and a Latency of 0.73 min.

`C#CCSc1nnc2n1-c1ccc([N+](=O)[O-])cc1C(c1ccccc1F)=N[C@H]2CCC(=O)OC` [Compound 50, methyl (S)-3-(8-nitro-6-(2-fluorophenyl)-1-(prop-2-yn-1-ylthio)-4H-benzo[f][1,2,4]triazolo[4,3-a][1,4]diazepin-4-yl)propionate] registered a Duration of 15.27 min and a Latency of 0.93 min.

The molecule `CCN(CC)CCSc1nnc2n1-c1ccc(Cl)cc1C(c1ccccc1F)=N[C@H]2CCC(=O)OC` [Compound 54, methyl (S)-3-(8-chloro-1-((2-(diethylamino)ethyl)thio)-6-(2-fluorophenyl)-4H-benzo[f][1,2,4]triazolo[4,3-a][1,4]diazepin-4-yl)propionate] gave a Duration of 6.83 min and a Latency of 0.24 min.

In the case of `CCN(CC)CCSc1nnc2n1-c1ccc(Br)cc1C(c1ccccc1F)=N[C@H]2CCC(=O)OC` [Compound 55, methyl (S)-3-(8-bromo-1-((2-(diethylamino)ethyl)thio)-6-(2-fluorophenyl)-4H-benzo[f][1,2,4]triazolo[4,3-a][1,4]diazepin-4-yl)propionate], the Duration turned out to be 13.84 min and the Latency was found to be 0.74 min.

Molecule `CCN(CC)CCSc1nnc2n1-c1ccc([N+](=O)[O-])cc1C(c1ccccc1F)=N[C@H]2CCC(=O)OC` [Compound 56, methyl (S)-3-(8-nitro-1-((2-(diethylamino)ethyl)thio)-6-(2-fluorophenyl)-4H-benzo[f][1,2,4]triazolo[4,3-a][1,4]diazepin-4-yl)propionate] came in with a Duration of 10.22 min and a Latency of 0.92 min.

With `COC(=O)CC[C@@H]1N=C(c2ccccc2F)c2cc(Br)ccc2-n2c(SCCCN(C)C)nnc21` [Compound 58, methyl (S)-3-(8-bromo-1-((3-(dimethylamino)propyl)thio)-6-(2-fluorophenyl)-4H-benzo[f][1,2,4]triazolo[4,3-a][1,4]diazepin-4-yl)propionate], the Duration came out at 7.76 min and the Latency is reported as 0.25 min.

`COC(=O)CC[C@@H]1N=C(c2ccccc2F)c2cc(Cl)ccc2-n2c(SCCN3CCN(C)CC3)nnc21` [Compound 60, methyl (S)-3-(8-chloro-6-(2-fluorophenyl)-1-((2-(4-methylpiperazin-1-yl)ethyl)thio)-4H-benzo[f][1,2,4]triazolo[4,3-a][1,4]diazepin-4-yl)propionate] showed a Duration of 12.27 min and a Latency of 0.49 min.

Regarding `COC(=O)CC[C@@H]1N=C(c2ccccc2F)c2cc(Br)ccc2-n2c(SCCN3CCN(C)CC3)nnc21` [Compound 61, methyl (S)-3-(8-bromo-6-(2-fluorophenyl)-1-((2-(4-methylpiperazin-1-yl)ethyl)thio)-4H-benzo[f][1,2,4]triazolo[4,3-a][1,4]diazepin-4-yl)propionate], the Duration was 12.28 min and the Latency came out at 0.82 min.

Still in this test, the particulars now being: 60 mg/kg, single rapid bolus via tail vein.
`CCSc1nnc2n1-c1ccc([N+](=O)[O-])cc1C(c1ccccc1Cl)=N[C@H]2CCC(=O)OC` [Compound 28, methyl (S)-3-(8-nitro-6-(2-chlorophenyl)-1-(ethylthio)-4H-benzo[f][1,2,4]triazolo[4,3-a][1,4]diazepin-4-yl)propionate] showed a Duration of 4.24 min and a Latency of 0.46 min.

Regarding `CCOC(=O)CC[C@@H]1N=C(c2ccccc2Cl)c2cc(Cl)ccc2-n2c(S)nnc21` [Compound 41, ethyl (S)-3-(8-chloro-6-(2-chlorophenyl)-1-mercapto-4H-benzo[f][1,2,4]triazolo[4,3-a][1,4]diazepin-4-yl)propionate], the Duration amounted to 8.59 min and the Latency is reported as 0.40 min.

For `CCOC(=O)CC[C@@H]1N=C(c2ccccc2Cl)c2cc(Br)ccc2-n2c(SC)nnc21` [Compound 43, ethyl (S)-3-(8-bromo-6-(2-chlorophenyl)-1-(methylthio)-4H-benzo[f][1,2,4]triazolo[4,3-a][1,4]diazepin-4-yl)propionate], the Duration is 7.25 min and the Latency amounted to 0.84 min.

In turn, `COC(=O)CC[C@@H]1N=C(c2ccccc2F)c2cc([N+](=O)[O-])ccc2-n2c(SCC3CC3)nnc21` [Compound 47, methyl (S)-3-(8-nitro-1-((cyclopropylmethyl)thio)-6-(2-fluorophenyl)-4H-benzo[f][1,2,4]triazolo[4,3-a][1,4]diazepin-4-yl)propionate] registered a Duration of 10.52 min and a Latency of 0.82 min.

Molecule `C#CCSc1nnc2n1-c1ccc(Cl)cc1C(c1ccccc1F)=N[C@H]2CCC(=O)OC` [Compound 48, methyl (S)-3-(8-chloro-6-(2-fluorophenyl)-1-(prop-2-yn-1-ylthio)-4H-benzo[f][1,2,4]triazolo[4,3-a][1,4]diazepin-4-yl)propionate] registered a Duration of 8.54 min and a Latency of 1.25 min.

As to `COC(=O)CC[C@@H]1N=C(c2ccccc2F)c2cc(Cl)ccc2-n2c(SCCCN(C)C)nnc21` [Compound 57, methyl (S)-3-(8-chloro-1-((3-(dimethylamino)propyl)thio)-6-(2-fluorophenyl)-4H-benzo[f][1,2,4]triazolo[4,3-a][1,4]diazepin-4-yl)propionate], the Duration turned out to be 5.89 min and the Latency came to 0.31 min.

`COC(=O)CC[C@@H]1N=C(c2ccccc2F)c2cc(Br)ccc2-n2c(SCCCN(C)C)nnc21` [Compound 58, methyl (S)-3-(8-bromo-1-((3-(dimethylamino)propyl)thio)-6-(2-fluorophenyl)-4H-benzo[f][1,2,4]triazolo[4,3-a][1,4]diazepin-4-yl)propionate] showed a Duration of 11.17 min and a Latency of 0.33 min.

The molecule `COC(=O)CC[C@@H]1N=C(c2ccccc2F)c2cc([N+](=O)[O-])ccc2-n2c(SCCN3CCN(C)CC3)nnc21` [Compound 62, methyl (S)-3-(8-nitro-6-(2-fluorophenyl)-1-((2-(4-methylpiperazin-1-yl)ethyl)thio)-4H-benzo[f][1,2,4]triazolo[4,3-a][1,4]diazepin-4-yl)propionate] gave a Duration of 10.05 min and a Latency of 0.86 min.
